Assay results from patent publication US20110071150A1 (priority 2009, published 2011).

System: Jurkat IL-2 Production
Test: Jurkat IL-2 Production Assay
Format: cell-based
Conditions: Homo sapiens, Jurkat cell (ATCC), 18-20 h incubation, PHA 5 μg/mL with 1% FBS, or PMA/Ionomycin with 30% FBS (table does not say which)
Method in brief: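 Jurkat cells were exposed to compound (0.25% DMSO final) for 10 min, then stimulated for 18–20 h at 37 °C. The 1% FBS condition used 5 μg/mL PHA; the high-serum condition (30% FBS) used 50 ng/mL PMA plus 500 ng/mL ionomycin. IC50 was derived from IL-2 production.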

Row | IC50 [nM] | Structure (SMILES)
1 | 108 | COCCOc1cc(C)c(-c2ccc3[nH]c(-c4c(F)cccc4Cl)cc3c2)cn1 [Example 163, 2-(2-chloro-6-fluorophenyl)-5-(6-(2-methoxyethoxy)-4-methylpyridin-3-yl)-1H-indole]
2 | 33 | CCOc1cc(C)c(-c2ccc3[nH]c(-c4c(F)cccc4Cl)cc3c2)cn1 [Example 164, 2-(2-chloro-6-fluorophenyl)-5-(6-ethoxy-4-methylpyridin-3-yl)-1H-indole]
3 | 316 | Cc1cc(N2CCOCC2)ncc1-c1ccc2[nH]c(-c3c(F)cccc3Cl)cc2c1 [Example 165, 4-(5-(2-(2-chloro-6-fluorophenyl)-1H-indol-5-yl)-4-methylpyridin-2-yl)morpholine]
4 | 518 | CNc1cc(C)c(-c2ccc3[nH]c(-c4c(F)cccc4Cl)cc3c2)cn1 [Example 166, 5-(2-(2-chloro-6-fluorophenyl)-1H-indol-5-yl)-N,4-dimethylpyridin-2-amine]
5 | 34 | Cc1cc(S(=O)(=O)N(C)C)cnc1-c1ccc2[nH]c(-c3c(F)cccc3Cl)cc2c1 [Example 167, 6-(2-(2-chloro-6-fluorophenyl)-1H-indol-5-yl)-N,N,5-trimethylpyridine-3-sulfonamide]
6 | 44 | CNS(=O)(=O)c1ccc(-c2ccc3[nH]c(-c4c(F)cccc4Cl)cc3c2)c(C)c1 [Example 168, 4-(2-(2-chloro-6-fluorophenyl)-1H-indol-5-yl)-N,3-dimethylbenzenesulfonamide]
7 | 117 | Cc1cc(S(=O)(=O)N2CCOCC2)ccc1-c1ccc2[nH]c(-c3c(F)cccc3Cl)cc2c1 [Example 169, 4-(4-(2-(2-chloro-6-fluorophenyl)-1H-indol-5-yl)-3-methylphenylsulfonyl)morpholine]
8 | 170 | Cc1cc(S(=O)(=O)N2CCN(C)CC2)ccc1-c1ccc2[nH]c(-c3c(F)cccc3Cl)cc2c1 [Example 170, 2-(2-chloro-6-fluorophenyl)-5-(2-methyl-4-(4-methylpiperazin-1-ylsulfonyl)phenyl)-1H-indole]
9 | 17 | Cc1cc(-c2nnn(C)n2)ccc1-c1ccc2[nH]c(-c3c(F)cccc3Cl)cc2c1 [Example 171, 2-(2-chloro-6-fluorophenyl)-5-(2-methyl-4-(2-methyl-2H-tetrazol-5-yl)phenyl)-1H-indole]
10 | 15 | COc1cc(C#N)ccc1-c1ccc2[nH]c(-c3c(F)cccc3Cl)cc2c1 [Example 172, 4-[2-(2-Chloro-6-fluoro-phenyl)-1H-indol-5-yl]-3-methoxy-benzonitrile]
11 | 12 | Cc1cc(S(C)(=O)=O)ncc1-c1ccc2[nH]c(-c3c(F)cccc3Cl)cc2c1 [Example 173, 2-(2-Chloro-6-fluoro-phenyl)-5-(6-methanesulfonyl-4-methyl-pyridin-3-yl)-1H-indole]
12 | 22 | CCc1cc(Cl)ncc1-c1ccc2[nH]c(-c3c(F)cccc3Cl)cc2c1 [Example 174, 5-(6-Chloro-4-ethyl-pyridin-3-yl)-2-(2-chloro-6-fluoro-phenyl)-1H-indole]
13 | 11 | CCc1sc(-c2cccnc2)nc1-c1ccc2[nH]c(-c3c(F)cccc3Cl)cc2c1 [Example 175, 4-[2-(2-chloro-6-fluorophenyl)-1H-indol-5-yl]-5-ethyl-2-(pyridin-3-yl)thiazole]
14 | 14 | Cc1sc(-c2cnccn2)nc1-c1ccc2[nH]c(-c3c(F)cccc3Cl)cc2c1 [Example 176, 2-(2-Chloro-6-fluoro-phenyl)-5-(5-methyl-2-pyrazin-2-yl-thiazol-4-yl)-1H-indole]
15 | 82 | Cc1sc(-c2cncnc2)nc1-c1ccc2[nH]c(-c3c(F)cccc3Cl)cc2c1 [Example 177, 2-(2-Chloro-6-fluoro-phenyl)-5-(5-methyl-2-pyrimidin-5-yl-thiazol-4-yl)-1H-indole]
16 | 59 | Cc1ccc(-c2nc(-c3ccc4[nH]c(-c5c(F)cccc5Cl)cc4c3)c(C)s2)cn1 [Example 178, 2-(2-Chloro-6-fluoro-phenyl)-5-[5-methyl-2-(6-methyl-pyridin-3-yl)-thiazol-4-yl]-1H-indole]
17 | 23 | CCc1sc(-c2cnccn2)nc1-c1ccc2[nH]c(-c3c(F)cccc3Cl)cc2c1 [Example 179, 2-(2-Chloro-6-fluoro-phenyl)-5-(5-ethyl-2-pyrazin-2-yl-thiazol-4-yl)-1H-indole]
18 | 28 | CC(C)c1sc(-c2cccnc2)nc1-c1ccc2[nH]c(-c3c(F)cccc3Cl)cc2c1 [Example 180, 2-(2-Chloro-6-fluoro-phenyl)-5-(5-isopropyl-2-pyridin-3-yl-thiazol-4-yl)-1H-indole]
19 | 56 | CC(C)c1sc(-c2cnccn2)nc1-c1ccc2[nH]c(-c3c(F)cccc3Cl)cc2c1 [Example 181, 2-(2-Chloro-6-fluoro-phenyl)-5-(5-isopropyl-2-pyrazin-2-yl-thiazol-4-yl)-1H-indole]
20 | 142 | CC(c1sc(-c2cccnc2)nc1-c1ccc2[nH]c(-c3c(F)cccc3Cl)cc2c1)C(F)(F)F (stereo not shown) [Example 182, 2-(2-chloro-6-fluoro-phenyl)-5-[2-pyridin-3-yl-5-(2,2,2-trifluoro-1-methyl-ethyl)-thiazol-4-yl]-1H-indole]

Row | IC50 [nM] | Structure (SMILES)
21 | 28 | CCn1nc(-c2cnccn2)cc1-c1ccc2[nH]c(-c3c(F)cccc3Cl)cc2c1 [Example 183, 2-(2-chloro-6-fluorophenyl)-5-(1-ethyl-3-(pyrazin-2-yl)-1H-pyrazol-5-yl)-1H-indole]
22 | 148 | Cn1nc(-c2ccccn2)nc1-c1ccc2[nH]c(-c3c(F)cccc3Cl)cc2c1 [Example 184, 2-(2-Chloro-6-fluoro-phenyl)-5-(2-methyl-5-pyridin-2-yl-2H-[1,2,4]-triazol-3-yl)-1H-indole]
23 | 65 | CCn1nc(-c2cccnc2)nc1-c1ccc2[nH]c(-c3ccccc3Cl)cc2c1 [Example 185, 2-(2-Chloro-phenyl)-5-(2-ethyl-5-pyridin-3-yl-2H-[1,2,4]-triazol-3-yl)-1H-indole]
24 | 34 | CCn1nc(-c2cccnc2)nc1-c1ccc2[nH]c(-c3c(Cl)cccc3Cl)cc2c1 [Example 186, 2-(2,6-Dichloro-phenyl)-5-(2-ethyl-5-pyridin-3-yl-2H-[1,2,4]triazol-3-yl)-1H-indole]
25 | 69 | CCn1nc(-c2cnccn2)nc1-c1ccc2[nH]c(-c3c(F)cccc3Cl)cc2c1 [Example 187, 2-(2-Chloro-6-fluoro-phenyl)-5-(2-ethyl-5-pyrazin-2-yl-2H-[1,2,4]triazol-3-yl)-1H-indole]
26 | 44 | Cn1nc(-c2cncnc2)nc1-c1ccc2[nH]c(-c3c(F)cccc3Cl)cc2c1 [Example 188, 2-(2-Chloro-6-fluoro-phenyl)-5-(2-methyl-5-pyrimidin-5-yl-2H-[1,2,4]triazol-3-yl)-1H-indole]
27 | 76 | CCn1nc(C(F)(F)F)cc1-c1ccc2[nH]c(-c3ccncc3C)cc2c1 [Example 189, 5-(1-ethyl-3-(trifluoromethyl)-1H-pyrazol-5-yl)-2-(3-methylpyridin-4-yl)-1H-indole]
28 | 111 | CCn1nc(C(F)(F)F)cc1-c1ccc2[nH]c(-c3cnc(OC)cc3C)cc2c1 [Example 190, 5-(1-ethyl-3-(trifluoromethyl)-1H-pyrazol-5-yl)-2-(6-methoxy-4-methylpyridin-3-yl)-1H-indole]
29 | 67 | CCn1nc(C(F)(F)F)cc1-c1ccc2[nH]c(-c3cnccc3C)cc2c1 [Example 191, 5-(1-ethyl-3-(trifluoromethyl)-1H-pyrazol-5-yl)-2-(4-methylpyridin-3-yl)-1H-indole]
30 | 149 | CCn1nc(C(F)(F)F)cc1-c1ccc2[nH]c(-c3ccncc3F)cc2c1 [Example 192, 5-(1-ethyl-3-(trifluoromethyl)-1H-pyrazol-5-yl)-2-(3-fluoropyridin-4-yl)-1H-indole]
31 | 129 | CCn1nc(C(F)(F)F)cc1-c1ccc2[nH]c(-c3ccc(OC)nc3C)cc2c1 [Example 193, 5-(1-ethyl-3-(trifluoromethyl)-1H-pyrazol-5-yl)-2-(6-methoxy-2-methylpyridin-3-yl)-1H-indole]
32 | 139 | CCn1nc(C(F)(F)F)cc1-c1ccc2[nH]c(-c3ccnc(OC)c3Cl)cc2c1 [Example 194, 2-(3-chloro-2-methoxypyridin-4-yl)-5-(1-ethyl-3-(trifluoromethyl)-1H-pyrazol-5-yl)-1H-indole]
33 | 782 | CCn1nc(C(F)(F)F)cc1-c1ccc2[nH]c(C3=CCCCC3)cc2c1 [Example 195, 2-cyclohexenyl-5-[1-ethyl-3-{trifluoromethyl}-1H-pyrazol-5-yl]-1H-indole]
34 | 24 | CCn1nc(C(F)(F)F)cc1-c1ccc2[nH]c(C3CCCCC3)cc2c1 [Example 196, 2-cyclohexyl-5-(1-ethyl-3-(trifluoromethyl)-1H-pyrazol-5-yl)-1H-indole]
35 | 110 | CCn1nc(C(F)(F)F)cc1-c1ccc2c(c1)CC(C1CCCCC1)N2 (stereo not shown) [Example 197]
36 | 95 | CCn1nc(C(F)(F)F)cc1-c1ccc2[nH]c(C3CCOCC3)cc2c1 [Example 198, 5-(1-ethyl-3-(trifluoromethyl)-1H-pyrazol-5-yl)-2-(tetrahydro-2H-pyran-4-yl)-1H-indole]
37 | 86 | CCn1nc(C(F)(F)F)cc1-c1ccc2[nH]c(C3CCCOC3)cc2c1 (stereo not shown) [Example 199, 5-(1-ethyl-3-(trifluoromethyl)-1H-pyrazol-5-yl)-2-(tetrahydro-2H-pyran-3-yl)-1H-indole]
38 | 220 | CCn1nc(C(F)(F)F)cc1-c1ccc2[nH]c(C3CCN(C(C)=O)CC3)cc2c1 [Example 200, 1-(4-(5-(1-ethyl-3-(trifluoromethyl)-1H-pyrazol-5-yl)-1H-indol-2-yl)piperidin-1-yl)ethanone]
39 | 35 | COc1cc(F)c(-c2cc3cc(-c4cc(C(F)(F)F)nn4C)ccc3[nH]2)c(Cl)c1 [Example 201, 2-(2-chloro-6-fluoro-4-methoxyphenyl)-5-(1-methyl-3-(trifluoromethyl)-1H-pyrazol-5-yl)-1H-indole]
40 | 57 | COc1cc(F)c(-c2cc3cc(-c4ccc(C#N)cc4C)ccc3[nH]2)c(Cl)c1 [Example 202, 4-(2-(2-chloro-6-fluoro-4-methoxyphenyl)-1H-indol-5-yl)-3-methylbenzonitrile]
